The record followed here is patent publication US8057659B2, “Detection of analytes in a dual-mediator electrochemical test strip” (AgaMatrix, Inc., priority 2006, dated 2011).

The target in one data set is GOX (Aspergillus niger, UniProt P13006). The following applies: 3+ form of mediator.
Data set [1] in a line: Redox potential of the mediator. It is filed as physicochemical. From the text: Another specific mediator is [Os(Mebpy)2Pic]^+/2+.

Chain of GOX (P13006 17-605, species assumed): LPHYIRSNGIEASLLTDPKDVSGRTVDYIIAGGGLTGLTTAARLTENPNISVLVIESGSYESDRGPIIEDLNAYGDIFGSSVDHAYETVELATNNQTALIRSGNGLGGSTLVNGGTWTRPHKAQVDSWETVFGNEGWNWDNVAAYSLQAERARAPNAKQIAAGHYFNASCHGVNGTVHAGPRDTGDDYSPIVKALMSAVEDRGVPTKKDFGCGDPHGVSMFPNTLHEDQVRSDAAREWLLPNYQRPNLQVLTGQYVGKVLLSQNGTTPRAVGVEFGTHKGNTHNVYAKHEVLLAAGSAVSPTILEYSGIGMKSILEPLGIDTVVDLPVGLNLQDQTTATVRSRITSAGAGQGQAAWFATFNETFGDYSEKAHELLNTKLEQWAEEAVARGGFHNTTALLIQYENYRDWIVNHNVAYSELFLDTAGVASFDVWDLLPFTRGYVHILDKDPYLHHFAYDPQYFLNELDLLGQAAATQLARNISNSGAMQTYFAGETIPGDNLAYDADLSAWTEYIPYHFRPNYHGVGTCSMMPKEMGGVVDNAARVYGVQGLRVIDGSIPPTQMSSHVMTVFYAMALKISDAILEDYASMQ

For [Os(MeBpy)2(Im)2]^2+/3+, the “second order rate constant of electron transfer from GOX to the 3+ mediator” value on GOX was “approximately 4.0×10^5 M^−1s^−1”. The “redox potential E^o” value in data set [1] is reported as 140-154 mV.
